SMILES strings stand for the structures. Some results are limits rather than exact numbers.

27 compounds from patent publication US10899747B2, “Biaryl piperidine amide compounds and methods of use thereof” (Athenex, Inc., priority 2017, dated 2021) can be followed below.

The assay has as its system IL-2. In words: PHA-IL2 (cell activation and cytokine analysis). In kind it is cell-based. Conditions: 50% inhibition concentration class. The method, then: Cells to be tested may include, but are not limited to, a) Jurkat (a transformed human T cell leukemia), b) whole blood isolated from human or rodent sources, c) peripheral blood mononuclear cells (PBMC) freshly isolated from human or rodent whole blood, or d) purified fractions of PBMC (e.g., CD4 T cells). Cells are plated in 96-well plates at a final density of 1.0-2.0×10^6 cells/ml in 150 ul of assay medium (RPMI+0.5% fetal calf serum). Test compounds are included at a final concentration of ≤20 uM and generally pre-incubated with cells for 30 minutes prior to stimulation. An appropriate stimulus is added, including but not limited to, a) phytohemagglutinin (PHA), b) phorbol myristate acetate (PMA) and ionomycin, or c) stimulatory antibodies to the T cell receptor (TCR) complex (e.g., anti-CD3ε) and CD28. Cell cultures are stimulated for 24-48 hours in a humidified incubator (37 degrees C./5% CO2). A fraction of the culture supernatant is than harvested from each well and assayed for the presence of appropriate cytokine using standard ELISA. Cytokines to be analyzed may include IL-2, IL-4, IL-10, IL-17, IL-22, IFNγ, and/or TNFα. If required, the number of cytokine producing cells can be determined using intracellular staining and flow cytometry. […]
Consider `CN(C)CCNC(=O)c1ccc(OCC(=O)N2CCC(CCc3ccccc3)CC2)c(-c2ccc(C#N)cc2)c1` [Compound 325], for which the IC50 is 1000 to 10000 nM. Take `O=C(COc1ccccc1-c1ccc2[nH]cnc2c1)N1CCC(CCc2ccc(O)cc2)CC1` [Compound 383]: the IC50 was in the range of 1000 to 10000 nM. Next, `O=C(COc1ccccc1-c1cccc(O)c1)N1CCC(CCc2ccc3c(c2)OCO3)CC1` [Compound 160]: 1000 to 10000 nM; `O=C(COc1ccccc1-c1ccc(C(F)(F)F)cc1O)N1CCC(CCc2ccc3c(c2)OCO3)CC1` [Compound 365]: 1000 to 10000 nM; `O=C(COc1ccccc1-c1ccc(C(F)(F)F)cc1)N1CCC(CCc2ccc3c(c2)OCO3)CC1` [Compound 203]: < 1000 nM. Compound `COc1cccc(CCC2CCN(C(=O)COc3cccnc3-c3ccc4[nH]ccc4c3)CC2)c1` [Compound 377] gave an IC50 of 1000 to 10000 nM.

In the case of `COc1cccc(CCC2CCN(C(=O)COc3ccccc3-c3ccc(F)cc3O)CC2)c1` [Compound 304], the IC50 was < 1000 nM.

Consider `O=C(COc1ccccc1-c1ccc(F)cc1O)N1CCC(CCc2ccc(N3CCOCC3)cc2)CC1` [Compound 305], for which the IC50 was < 1000 nM. `N#Cc1ccc(-c2ccccc2OCC(=O)N2CCC(CCc3ccc(O)cc3)CC2)cc1` [Compound 279]: the half-maximal inhibitory concentration (IC50) is < 1000 nM. Next, `O=C(COc1cccnc1-c1ccc(F)cc1O)N1CCC(CCc2cccc(OCCN3CCCCC3)c2)CC1` [Compound 360]: 1000 to 10000 nM; `NS(=O)(=O)c1ccc(-c2ccccc2OCC(=O)N2CCC(CCc3ccc4c(c3)OCO4)CC2)cc1` [Compound 181]: 10000 to 50000 nM; `O=C(COc1ccccc1-c1ccccc1)N1CCC(CCc2cc(C(F)(F)F)cc(C(F)(F)F)c2)CC1` [Compound 117]: < 1000 nM. Compound `COc1ccc(CCC2CCN(C(=O)C(C)Oc3c(C)cccc3-c3ccccc3)CC2)cc1` (stereo not drawn) [Compound 234] registered an IC50 of 1000 to 10000 nM. Regarding `O=C(COc1ccccc1-c1ccc(F)cc1O)N1CCC(CCc2cccc(OCCN3CCCC3)c2)CC1` [Compound 359], the IC50 lay in the range of 1000 to 10000 nM.

Consider `O=C(COc1ccccc1-c1ccc(Cl)nc1)N1CCC(CCc2ccc3c(c2)OCCO3)CC1` [Compound 292], for which the IC50 fell in the range of 1000 to 10000 nM. With `O=C(COc1ccccc1-c1ccccc1)N1CCC(/C=C/c2ccc3c(c2)OCO3)CC1` [Compound 253], the IC50 was < 1000 nM. In the case of `CC(C)Oc1cccc(CCC2CCN(C(=O)COc3ccc(C#N)cc3-c3ccc(F)cc3O)CC2)c1` [Compound 399], the IC50 is < 1000 nM. Regarding `O=C(COc1cccnc1-c1ccc(F)cc1O)N1CCC(CCc2ccc3c(c2)OCCO3)CC1` [Compound 337], the IC50 was < 1000 nM. In the case of `O=C(c1ccccc1)c1ccc(-c2ccccc2OCC(=O)N2CCC(CCc3cccc(O)c3)CC2)cc1` [Compound 415] it was < 1000 nM. For the compound `O=C(COc1ccccc1-c1ccccc1Cl)N1CCC(CCc2ccc3c(c2)OCO3)CC1` [Compound 165], the IC50 was < 1000 nM. On to `CC(C)Oc1cccc(CCC2CCN(C(=O)COc3ccc(C#N)cc3-c3ccccc3O)CC2)c1` [Compound 414], for which the IC50 is < 1000 nM. Take `N#Cc1cc(-c2ccccc2OCC(=O)N2CCC(CCc3ccc4c(c3)OCO4)CC2)ccc1F` [Compound 188]: the IC50 is < 1000 nM. In the case of `C#CCOc1ccc(C(=O)c2ccc(-c3ccccc3OCC(=O)N3CCC(CCc4cccc(OC(C)C)c4)CC3)cc2)cc1` [Compound 419] it was 1000 to 10000 nM; in that of `Cc1ccc(F)c(-c2ccccc2OCC(=O)N2CCC(CCc3ccc4c(c3)OCO4)CC2)c1` [Compound 239], < 1000 nM. In the case of `Cn1ccc2cc(-c3ncccc3OCC(=O)N3CCC(CCc4ccc5c(c4)OCO5)CC3)ccc21` [Compound 379] it was 1000 to 10000 nM; in that of `COc1cccc(CCC2CCN(C(=O)COc3cccnc3-c3ccc(C#N)cc3)CC2)c1` [Compound 361], 1000 to 10000 nM; in that of `O=C(COc1cccnc1-c1ccc(F)cc1O)N1CCC(CCc2ccncc2)CC1` [Compound 397], 1000 to 10000 nM.
